These results are taken from patent US20240374677A1, “VARIOUS COMPOUNDS FOR THE TREATMENT OF NEUROFIBROMATOSIS TYPE 1” (PUSAN NATIONAL UNIVERSITY INDUSTRY-UNIVERSITY COOPERATION …, priority 2023, published 2024).

The subject of experiment [1] is NF1-GRD1 protein. As to the kind of experiment: Nano-Glo HiBiT lytic assay of NF1-GRD1 protein in stable 293T cells. Type of experiment: cell-based, human. The settings on record: FIG. 9; for treatment time at which the maximum effect was shown: 6 hours and 24 hours tested. Here is the method: The cells were treated in the same manner as in Experimental Example 1 except that the treatment time was 6 hours and 24 hours, respectively, and the results of measuring the activity in each case were illustrated in FIG. 9.
The cells were treated in the same manner as in Experimental Example 1, except that the treatment time was 6 hours and 24 hours, respectively, and the concentration of PN-NF27 was 0 μM, 0.25 μM, 0.5 μM, 1.0 μM, and 5.0 μM, and the results of measuring the activity in each case were illustrated in FIG. 8.
(The HiBiT peptide binds its large partner to form an active luciferase.)

For experiment [2], the system named is NF1 protein. Description: Western blot of NF1 protein in 293T cells. Type of experiment: cell-based, human. The settings on record: 5 μM, 6 hours, FIG. 10. As for the experimental part:
(§1) The effect of increasing NF1 protein in human renal epithelial-like cells (293T), human lung cancer cells (A549), and mouse embryonic fibroblasts (MEF) was analyzed using Western blot. Specifically, the cells incubated in a 10% FBS+DMEM culture medium for 48 hours were treated with 5 μM each of compounds for 6 hours, and then the quantified protein samples were subjected to electrophoresis. After electrophoresis, the proteins in the gel were transferred to a PVDF membrane and then Western blot was performed using NF1 antibody (Abcam, Cat#ab128054).
In general terms: In western blotting, separated proteins are transferred to a membrane and probed.

The subject of experiment [3] is NF1 protein. Description: Western blot of NF1 protein in A549 cells. It counts as cell-based, human. Conditions: 5 μM, 6 hours, FIG. 10. Here is the method: as §1
For experiment [4], the system named is NF1 protein. Description: Western blot of NF1 protein in mouse embryonic fibroblasts (MEF). It counts as cell-based. The settings on record: for NF1 protein increasing effect (Western blot): MEF cells, 6 hours, compared to other substances, FIG. 10; for NF1 protein quantification (Western blot) vs control group: MEF. As for the experimental part:
as §1
In addition, the effect of increasing NF1 protein in mouse embryonic fibroblasts (MEF) was analyzed using Western blot. A specific method was as described in Experimental Example 3.
The effect of increasing NF1 protein in mouse embryonic fibroblasts (MEF) was analyzed using Western blot. A specific method was as described in Experimental Example 3.

Experiment [5] deals with NF1 protein. As to the kind of experiment: Western blot of NF1 protein in skin cells of NF1 patients. It counts as cell-based, human. The settings on record: 1 μM; normal cells and NF-09, NF-21, NF-11 cells, FIG. 13. Here is the method:
as §1
The effect of increasing NF1 protein in skin cells NF-09, NF-21, and NF-11 of NF1 patients was analyzed using Western blot. A specific method was as described in Experimental Example 3.

For experiment [6], the system named is human lung cancer cells A549. As to the kind of experiment: MTT assay in A549 cells. Type of experiment: cell-based. The settings on record: A549, various concentrations, 72 hours, FIG. 11. Here is the method: (§2) Human lung cancer cells A549 and A549GR were treated with PN-NF27, PN-NF28, PN-NF30, PN-NF38, and PN-NF41, respectively, and then the MTT assay results were shown. Specifically, A549 and A549GR (anticancer resistant) cells incubated for 24 hours in a 96 well plate were treated with various concentrations of compounds for 72 hours, respectively, and then added with 10 μl of 3-(4,5-dimethylthiazole-2-yl)-2,5-diphenyltetrazolium bromide (MTT) and after 2 hours, the absorbance was measured at 550 nm.

Experiment [7] concerns A549GR (anticancer resistant) cells. As to the kind of experiment: MTT assay in A549GR cells. It counts as cell-based, human. The settings on record: various concentrations, 72 hours, FIG. 11. Here is the method: as §2
(Tetrazolium assays rely on reduction of a dye to a coloured formazan, in cell work by metabolically active cells.)

The subject of experiment [8] is skin cells NF-09, NF-21, and NF-11 of NF1 patients. Description: MTT assay in skin cells of NF1 patients. It counts as cell-based, human. As for the experimental part:
The cell proliferation inhibitory effect of PN-NF27 was confirmed by an MTT method using skin cells NF-09, NF-21, and NF-11 of NF1 patients. […]
The cell proliferation inhibitory effect of PN-NF38 was confirmed using skin cells NF-09, NF-21, and NF-11 of NF1 patients. Specifically, skin fibroblasts (passage>8) incubated for 48 hours were treated with PN-NF38 at 0, 0.1, 1, 2.5, 5, and 10 μM for 24 hours, and then added with 3-(4,5-dimethylthiazol-2-yl)-2,5-diphenyltetrazolium bromide (MTT) and reacted for 1 hours, and then the absorbance was measured at 550 nm.
The cell proliferation inhibitory effect of PN-NF41 was confirmed using skin cells NF-09, NF-21, and NF-11 of NF1 patients. Specifically, skin fibroblasts (passage>8) incubated for 24 hours were treated with 5 μM of PN-NF41 for 72 hours, and then added with 3-(4,5-dimethylthiazol-2-yl)-2,5-diphenyltetrazolium bromide (MTT) and reacted for 1 hours, and then the absorbance was measured at 550 nm.

Experiment [9] has as its system NF1-GRD1 protein. Description: Nano-Glo HiBiT lytic assay of NF1-GRD1 protein in stable 293T cells. Type of experiment: cell-based, human. The settings on record: for effect of increasing NF1 protein, times higher than control group: 293T cells stably expressing NF1-GRD1, treated 24 hours, luciferase activity vs DMSO-treated control, FIG. 8; for concentration showing the highest activity: 0-5.0 μM tested.

The subject of experiment [10] is HCT-8, HCT-15, HCT-116, PANC1, and PC3 cells. As to the kind of experiment: MTT assay in colon, pancreatic and prostate cancer cells. Conditions: 0, 0.1, 0.5, 1, 5, 10 μM, 72 hours, FIG. 17. Type of experiment: cell-based, human. Here is the method:
The cell proliferation inhibitory effect of PN-NF30 was confirmed using human colon cancer cells HCT-8, HCT-15, and HCT-116, human pancreatic cancer cells PANC1, and human prostate cancer cells PC3. Specifically, the HCT-8, HCT-15, HCT-116, PANC1, and PC3 cells incubated for 24 hours in a 96 well plate were treated with compounds at concentrations of 0, 0.1, 0.5, 1, 5, and 10 μM for 72 hours, respectively, and then added with 10 μl of 3-(4,5-dimethylthiazole-2-yl)-2,5-diphenyltetrazolium bromide (MTT) and after 1 hours, the absorbance was measured at 550 nm.

`C/C=C(/C)C(=O)O[C@H]1C(C)=C[C@]23C(=O)[C@@H](C=C(COC(C)=O)[C@@H](O)[C@]12O)[C@H]1[C@@H](C[C@H]3C)C1(C)C` [PN-NF27, 20-O-acetylingenol-3-angelate]: in the experiment with NF1-GRD1 protein [1], the “treatment time at which the maximum effect was shown” value is at most 6 h. Moreover, the “maximum effect compared to the control group” value with NF1-GRD1 protein [1] (treatment time 6 hours) is 24 fold. Moreover, the “NF1 protein increasing effect (Western blot)” value (shortened to “NF1 protein increasing effect”) in the experiment on NF1 protein [2] was “excellent”; in the experiment on NF1 protein [3], “superior to other substances”; in the experiment on NF1 protein [4] (5 μM), “superior to other substances”. Also, the “NF1 protein quantification (Western blot) vs control group” value in the experiment on NF1 protein [4] (1 μM, FIG. 14) is listed as “tended to increase”. Also, the “NF1 protein (Western blot) treated vs not treated” value in the experiment on NF1 protein [5] is on record as “tended to increase”. For the same molecule, the “cell proliferation (MTT)” value in experiment [6] and in experiment [7] was “effectively inhibited” throughout. For the same molecule, the “cell proliferation (MTT) treated vs not treated” value in [8] (1 μM (result text), 72 hours, normal cells and NF-09, NF-21, NF-11 cells, FIG. 15) was “tended to be inhibited”. For the same molecule, the “effect of increasing NF1 protein, times higher than control group” value (“effect of increasing NF1 protein” for short) in the experiment with NF1-GRD1 protein [9] is given as “about 6 times”. Also, in the experiment on NF1-GRD1 protein [9] (PN-NF27 at 0.25, 0.5, 1.0, 5.0 μM, 6 hours and 24 hours, FIG. 12), the “activity compared with the case not treated (0 μM)” value is on record as “higher activity”. In addition, the “concentration showing the highest activity” value with NF1-GRD1 protein [9] (incubated for 24 hours, FIG. 12) stood at 0.5 µM; with NF1-GRD1 protein [9] (treated for 6 hours, FIG. 12) it was 5.0 µM.
Consider `CN1CCc2cccc3c2[C@H]1Cc1ccc(O)c(O)c1-3.CN1CCc2cccc3c2[C@H]1Cc1ccc(O)c(O)c1-3.Cl.Cl.O` [PN-NF30, R(−) Apomorphine hydrochloride hemihydrate, reference compound], for which the “NF1 protein increasing effect” value in the experiment on NF1 protein [3] is on record as “superior to other substances”. The “NF1 protein quantification (Western blot) vs control group” value with NF1 protein [4] (5 μM, FIG. 16) is listed as “tended to increase”. Further, the “cell proliferation (MTT)” value in [6] and in experiment [7] was “effectively inhibited” throughout. The “cell proliferation (MTT), concentration dependence” value in [10] is “tended to effectively inhibit cell proliferation as the concentration increased”. The “effect of increasing NF1 protein” value with NF1-GRD1 protein [9] is “about 2 times”.
In the case of `C=C(NC(=O)C(=C)NC(=O)c1csc(C2=N[C@@H]3c4csc(n4)[C@H]4NC(=O)c5csc(n5)[C@H]([C@](C)(O)[C@@H](C)O)NC(=O)[C@H]5CSC(=N5)/C(=C/C)NC(=O)[C@H]([C@@H](C)O)NC(=O)c5csc(n5)[C@]3(CC2)NC(=O)[C@H](C)NC(=O)C(=C)NC(=O)[C@H](C)NC(=O)[C@H]([C@@H](C)CC)N[C@@H]2C=Cc3c([C@H](C)O)cc(nc3[C@H]2O)C(=O)O[C@@H]4C)n1)C(N)=O` [PN-NF38, Thiostrepton], the “treatment time at which the maximum effect was shown” value in the experiment on NF1-GRD1 protein [1] was 24 h. Also, the “maximum effect compared to the control group” value in the experiment on NF1-GRD1 protein [1] (treatment time 24 hours) was determined as 11 fold. Moreover, the “NF1 protein increasing effect” value in the experiment on NF1 protein [3] and in the experiment on NF1 protein [4] (5 μM) was “superior to other substances” in each case. For the same molecule, the “NF1 protein quantification (Western blot) vs control group” value in the experiment with NF1 protein [4] (2 μM, FIG. 18) is “tended to increase”. The “cell proliferation (MTT)” value in experiment [6] and in [7] was “effectively inhibited” in each case. Further, the “cell proliferation (MTT), concentration dependence” value in [8] (0, 0.1, 1, 2.5, 5, 10 μM, 24 hours, FIG. 19) is “tended to be effectively inhibited as the concentration of PN-NF38 cells increased”. In [8] (10 μM, 24 hours, FIG. 19), the “cell viability (MTT)” value was “less than 0.3”. Moreover, the “effect of increasing NF1 protein” value with NF1-GRD1 protein [9] is reported as “about 20 times”.
